Laboratory results reported in patent US10208065B2, “Crystalline free bases of C-Met inhibitor or crystalline acid salts thereof, and preparation methods and uses thereof” (Jiangsu Hansoh Pharmaceutical Group Co., Ltd., priority 2014, dated 2019).
Values after ≈ are worked out from the molar mass of the structure shown. Counter-ions that a name gives are not always drawn.

Tests used:
[1] = Solubility in simulated biological media (37° C., HPLC); type: physicochemical; details: for Solubility compared with the solubility of the free base: simulated biological media
Protocol: (§1) Procedure: About 10 mg of amorphous free base was weighed and placed in a 2 mL glass vial. Then, 1 mL of simulated biological media (simulated artificial gastric juice, simulated artificial intestinal juice-fasting, and simulated artificial intestinal juice-satiety), and a magnetic stirrer were added, and then the vial was sealed. The mixture was magnetically stirred at 37° C. and about 0.4 mL of the sample was taken at different time points. The mixture was filtered with a centrifuge tube (pore size of filter membrane: 0.45 μm), the filtrate was taken and the content of the compound of formula I therein was analyzed by HPLC.
as §1, with “crystal form I of” for “amorphous”, “vial,” for “vial. Then,”, “was” for “were”, “added,” for “added, and”
as §1, with “crystal form of the” for “amorphous”, “and” for “and then”
as §1, with “crystal form I of a phosphate salt” for “amorphous free base”, “(simulated is” for “(simulated”
as §1, with “crystal form III of the mesylate salt” for “amorphous free base”
as §1, with “crystal form III of the 1,5-naphthalenedisulfonate salt” for “amorphous free base”

[2] = Accelerated stability test (HPLC purity, crystal form); type: physicochemical; details: for Purity ratio: purity after test / initial purity
Protocol: The accelerated stability test of crystal form III of the mesylate salt was used for researching the physical and chemical stability of crystal form III of the mesylate salt. Specific procedure: After the sample was placed in an accelerated stability for a sufficient time under the conditions shown in the table below, the sample was taken out and dissolved in the mobile phase, and then its purity was determined by HPLC. Before the start of the accelerated stability test, the purity of the initial sample was determined by HPLC. The ratio of the purity of the sample after the accelerated stability test to the purity of the initial sample was used as a stability criterion. If the ratio was less than 95% purity, the sample was considered as unstable.

[3] = Bioavailability in dog after single administration by gavage; type: in vivo; details: 5 mg/kg
Protocol: It could be seen from FIG. 21 that the bioavailability of crystal form III of the mesylate salt was increased by 5 times in comparison to form I of the free base. Experimental conditions: the experimental animal was a dog, a dose of 5 mg/kg, single administration by gavage. Therefore, the salt-form compound has a significant improvement in comparison to the free base.

[4] = simulated artificial gastric juice
[5] = simulated artificial intestinal juice-fasting
[6] = simulated artificial intestinal juice-satiety
[7] = 40° C./75% relative humidity, 1 week

SMILES	Solubility (1 hour) [1, 4]	Solubility (4 hours) [1, 4]	Solubility (22 hours) [1, 4]	Solubility (1 hour) [1, 5]	Solubility (4 hours) [1, 5]	Solubility (22 hours) [1, 5]	Solubility (1 hour) [1, 6]	Solubility (4 hours) [1, 6]	Solubility (22 hours) [1, 6]	Solubility compared with the solubility of the free base [1]	Crystal transformation after the accelerated stability test [2, 7]	Purity after the accelerated stability test ([2]; 40° C./75% relative humidity, 1 week, initial purity 98.2%)	Purity ratio [2, 7]	Physical and chemical stability ([2]; 80° C. 1 day and 40° C./75% relative humidity 1 week)	Crystal transformation after the accelerated stability test ([2]; 80° C., 1 day)	Purity after the accelerated stability test ([2]; 80° C., 1 day, initial purity 99.9%)	Purity ratio ([2]; 80° C., 1 day)	Increase of bioavailability in comparison to form I of the free base [3]
CN1C(=O)COc2c1cnc1ccc(Sc3nnc4c(F)cc(-c5cnn(C)c5)cn34)cc21 [Amorphous free base, 9-((8-fluoro-6-(1-methyl-1H-pyrazol-4-yl)-[1,2,4]triazolo[4,3-a]pyridin-3-yl)thio)-4-methyl-2H-[1,4]oxazino[3,2-c]quinolin-3(4H)-one]	11 µg/mL (≈ 23.8 µM)	9 µg/mL (≈ 19.5 µM)	9 µg/mL (≈ 19.5 µM)	2 µg/mL (≈ 4.33 µM)	2 µg/mL (≈ 4.33 µM)	2 µg/mL (≈ 4.33 µM)	3 µg/mL (≈ 6.5 µM)	2 µg/mL (≈ 4.33 µM)	2 µg/mL (≈ 4.33 µM)	–	–	–	–	–	–	–	–	–
CN1C(=O)COc2c1cnc1ccc(Sc3nnc4c(F)cc(-c5cnn(C)c5)cn34)cc21 [Crystal form I of free base, 9-((8-fluoro-6-(1-methyl-1H-pyrazol-4-yl)-[1,2,4]triazolo[4,3-a]pyridin-3-yl)thio)-4-methyl-2H-[1,4]oxazino[3,2-c]quinolin-3(4H)-one]	18 µg/mL (≈ 39 µM)	19 µg/mL (≈ 41.2 µM)	19 µg/mL (≈ 41.2 µM)	1 µg/mL (≈ 2.17 µM)	1 µg/mL (≈ 2.17 µM)	2 µg/mL (≈ 4.33 µM)	4 µg/mL (≈ 8.67 µM)	4 µg/mL (≈ 8.67 µM)	4 µg/mL (≈ 8.67 µM)	–	–	–	–	–	–	–	–	–
CN1C(=O)COc2c1cnc1ccc(Sc3nnc4c(F)cc(-c5cnn(C)c5)cn34)cc21 [Crystal form I of phosphate, 9-((8-fluoro-6-(1-methyl-1H-pyrazol-4-yl)-[1,2,4]triazolo[4,3-a]pyridin-3-yl)thio)-4-methyl-2H-[1,4]oxazino[3,2-c]quinolin-3(4H)-one]	128 µg/mL	135 µg/mL	135 µg/mL	8 µg/mL	4 µg/mL	3 µg/mL	32 µg/mL	33 µg/mL	27 µg/mL	much greater	–	–	–	–	–	–	–	–
CN1C(=O)COc2c1cnc1ccc(Sc3nnc4c(F)cc(-c5cnn(C)c5)cn34)cc21 [Crystal form III of free base, 9-((8-fluoro-6-(1-methyl-1H-pyrazol-4-yl)-[1,2,4]triazolo[4,3-a]pyridin-3-yl)thio)-4-methyl-2H-[1,4]oxazino[3,2-c]quinolin-3(4H)-one]	40 µg/mL (≈ 86.7 µM)	43 µg/mL (≈ 93.2 µM)	43 µg/mL (≈ 93.2 µM)	4 µg/mL (≈ 8.67 µM)	4 µg/mL (≈ 8.67 µM)	4 µg/mL (≈ 8.67 µM)	11 µg/mL (≈ 23.8 µM)	11 µg/mL (≈ 23.8 µM)	10 µg/mL (≈ 21.7 µM)	–	–	–	–	–	–	–	–	–

Continued, values first:

Solubility (1 hour) [1, 4]	Solubility (4 hours) [1, 4]	Solubility (22 hours) [1, 4]	Solubility (1 hour) [1, 5]	Solubility (4 hours) [1, 5]	Solubility (22 hours) [1, 5]	Solubility (1 hour) [1, 6]	Solubility (4 hours) [1, 6]	Solubility (22 hours) [1, 6]	Solubility compared with the solubility of the free base [1]	Crystal transformation after the accelerated stability test [2, 7]	Purity after the accelerated stability test ([2]; 40° C./75% relative humidity, 1 week, initial purity 98.2%)	Purity ratio [2, 7]	Physical and chemical stability ([2]; 80° C. 1 day and 40° C./75% relative humidity 1 week)	Crystal transformation after the accelerated stability test ([2]; 80° C., 1 day)	Purity after the accelerated stability test ([2]; 80° C., 1 day, initial purity 99.9%)	Purity ratio ([2]; 80° C., 1 day)	Increase of bioavailability in comparison to form I of the free base [3]	SMILES
211 µg/mL	200 µg/mL	12.5 µg/mL	5 µg/mL	5 µg/mL	5 µg/mL	20 µg/mL	14 µg/mL	10 µg/mL	much greater	No	98.8%	100.6%	good physical and chemical stability	No	99.7%	99.8%	5 times	CN1C(=O)COc2c1cnc1ccc(Sc3nnc4c(F)cc(-c5cnn(C)c5)cn34)cc21 [Crystal form III of mesylate, 9-((8-fluoro-6-(1-methyl-1H-pyrazol-4-yl)-[1,2,4]triazolo[4,3-a]pyridin-3-yl)thio)-4-methyl-2H-[1,4]oxazino[3,2-c]quinolin-3(4H)-one]
182 µg/mL	27 µg/mL	30 µg/mL	12 µg/mL	10 µg/mL	5 µg/mL	48 µg/mL	33 µg/mL	13 µg/mL	much greater	–	–	–	–	–	–	–	–	CN1C(=O)COc2c1cnc1ccc(Sc3nnc4c(F)cc(-c5cnn(C)c5)cn34)cc21 [Crystal form III of the 1,5-naphthalenedisulfonate salt] [9-((8-fluoro-6-(1-methyl-1H-pyrazol-4-yl)-[1,2,4]triazolo[4,3-a]pyridin-3-yl)thio)-4-methyl-2H-[1,4]oxazino[3,2-c]quinolin-3(4H)-one]
